Source: patent publication US20090311237A1, “Combination therapy using a soluble hyaluronidase and a bisphosphonate” (priority 2008, published 2009)
Like-named read-outs stand apart in the source and are kept apart here.

Experiments:
[1] = test system: Sprague Dawley rats; experiment: Injection site reactions (gross ISR incidence, lesion area) after intradermal injection of zoledronic acid with or without rHuPH20; format: in vivo, rat; conditions: for AUC (accumulated ISR area over 6 days) / Peak lesion area: rat ID 0.1 mL, rHuPH20 0 U/mL
Protocol: A rodent model of local injection site injury caused by ZA injection was employed for the study. […] Injection into the dermis facilitates external visualization and assessment of the irritant.
(§1) Nine to ten week old female Sprague Dawley rats, having approximate body weight of 200-250 grams, were employed for the study. One day prior to injection, rats were shaved and hair on the back and flank area were removed by Nair® cream (exposure less than 1 min to depilation cream) followed by deep wash with warm tap water. On the day of dosing, all rats were injected intradermally in flank area (one or two injection spots per side), with 0.1 or 0.2 mL as indicated of zoledronic acid solution, with or without rHuPH20, at each corresponding concentration as shown in study design table. Injection site appearance was observed and quantified by blind assessment each day following the injection until the end of the study, at which time animals were sacrificed and the skin around the dosing area as well as a part of the skin that was not effected by the dosing were collected and fixed in 10% neutral buffered formalin (NBF) and further embedded in paraffin, 5 μm sections were cut for H&E stain and histopathology evaluation.
(§2) Lesion area was calculated by the following formula: W×L×¼π. Quantitative results were analyzed using one-way analysis of variance (ANOVA) method, followed by Dunnett's comparison method (Prizm 4 program). The probability values of less than 0.05 (two-tailed) were used as the critical level of significance for all tests. Groups with a sample size of two were excluded from analysis. If the sample size was 2 for the control group, there were no statistical analyses at that interval for any of the groups. Histopathologic findings were characterized by semi-quantitative analysis of necrosis and infiltration in the skin tissue. The incidences of each finding were compared with control groups by Chi-square test.
(§3) Prior to ZA intradermal injection, rats were randomized by body weight into 7 groups of 1 or 2 rats per group (Table 2). Rats were injected with either 0.1 mL or 0.2 mL of each corresponding concentration intradermally at two separate locations on each shaved flank side for a total of 4 injections for each animal. Injection sites were observed daily post-injection for four days. Pictures of injection site reaction (ISR) area were captured by digital camera and lesion area was scored for induration, erythema, or ulceration. Two perpendicular diameters (width & length) of injection site lesion were measured by microcaliper. The lesion area was defined as the area bounded by the outer edge of the erythemic zone. Upon completion of the study, the animals were euthanized and skin at the injection site and from an untreated area of the back of the rat were excised, mounted flat onto a piece of cardboard, and placed in 10% NBF.
(§4) A series of experiments were conducted in which various dosing concentrations of rHuPH20 were tested for the ability to reduce acute injection site lesions. Prior to ZA intra-dermal injection, rats were randomized by body weight into 11 groups of 2 rats per group. Rats were injected intradermally with 0.1 mL of each co-formulated solution as shown in Table 5 and observed daily with ISR development assessed as in Section B. Four days after injection, rats were sacrificed and the skin at the injection site as well as untreated skin from the back was excised, mounted flat onto a piece of cardboard, and placed in 10% NBF.
Prior to ZA intra-dermal injection, rats were randomized by body weight into 6 groups of 3 rats per group (Table 6). Rats were intradermally injected with 0.1 mL of each corresponding co-formulated solution at two separate locations, two on each shaved flank side, for a total of 4 injections for each animal. Injection sites were observed daily with ISR development assessed as in Section B for 6 days. […]

[2] = test system: Sprague Dawley rats; experiment: Semi-quantitative histopathology of skin at injection site after ID zoledronic acid with or without rHuPH20; format: in vivo; design: key to Necrosis: Mid-dermis / Infiltration: Focal / Infiltration: Muscular / Necrosis: Epidermis / Infiltration: Skin Diffuse / Infiltration: Muscle: —: Dash indicates no incidence of indicated finding; key to Infiltration: Skin Focal: —: Dash indicates no incidence of the indicated observation; conditions: rat ID, 4 days
Protocol: as §1, §2, §3
as §4, with “NBF. […]” for “NBF.”

[3] = test system: Sprague Dawley rats; experiment: Injection site reaction recovery study (10 days) after ID ZA with or without rHuPH20; format: in vivo, rat
Protocol: Sprague Dawley rats were randomized to three groups of 4 rats each. ZA (0.1 ml at 0.1 mg/mL), either alone or supplemented with either 130 U/mL or 100,000 U/mL rHuPH20, was given via intradermal injection. Injection sites were observed and measured daily. Animals were sacrificed at 10 days post-injection and skin from lesion areas were dissected, fixed in 10% buffered formalin, embedded in paraffin and stained with H&E.

[4] = IV infusion; cited from earlier work
[5] = cited from earlier work; for IV MRT: IV […] infusion, calculated from published ZA PK data
[6] = test system: Sprague Dawley rats; experiment: Semi-quantitative histopathology of skin at injection site after ID zoledronic acid with or without rHuPH20; format: in vivo; design: key: —: Dash indicates no incidence of indicated finding; conditions: rat ID, 4 days
Protocol: as §1
Lesion area was calculated by the following formula: W×L×¼π. Quantitative results were analyzed using one-way analysis of variance (ANOVA) method, followed by Dunnett's comparison method (Prizm 4 program). […] Histopathologic findings were characterized by semi-quantitative analysis of necrosis and infiltration in the skin tissue. […]

O=P(O)(O)C(O)(Cn1ccnc1)P(=O)(O)O [ZA, 1-hydroxy-2-(1H-imidazol-1-yl)ethylidene-1,1-bisphosphonic acid]
AUC (accumulated ISR area over 6 days) ([1]; ZA 0.05 mg/mL): 110.8 ± 5.6 mm^2 · day
Peak lesion area ([1]; ZA 0.05 mg/mL): 28.8 ± 1.8 mm^2
AUC (accumulated ISR area over 6 days) ([1]; ZA 0.1 mg/mL): 108.3 ± 6.9 mm^2 · day
Peak lesion area ([1]; ZA 0.1 mg/mL): 32.3 ± 2.7 mm^2
AUC (accumulated ISR area over 6 days) ([1]; ZA 0.4 mg/mL): 226.5 ± 9.1 mm^2 · day
Peak lesion area ([1]; ZA 0.4 mg/mL): 62.9 ± 5.1 mm^2
erythema area ([1]; rat ID, ZA alone 0.05-0.2 mg/ml): ~35 mm^2
Infiltration: Muscle ([2]; ZA 0.05 mg/mL, rHuPH20 0 U/ml): —
Infiltration: Skin Diffuse ([2]; ZA 0.05 mg/mL, rHuPH20 0 U/ml): —
Necrosis: Epidermis ([2]; ZA 0.05 mg/mL, rHuPH20 0 U/ml): —
Infiltration: Skin Focal ([2]; ZA 0.4 mg/mL, rHuPH20 0 U/ml): —
Infiltration: Muscular ([2]; ZA alone 0.05 mg/mL): —
Necrosis: Mid-dermis ([2]; ZA alone 0.05 mg/mL): —
Infiltration: Focal ([2]; ZA alone 0.1 mg/mL): —
Necrosis: Mid-dermis ([2]; ZA alone 0.1 mg/mL): —
Infiltration: Focal ([2]; ZA alone 0.2 mg/mL): —
Necrosis: Mid-dermis ([2]; ZA alone 0.2 mg/mL): —
Infiltration: Focal ([2]; ZA alone 0.4 mg/mL): —
Infiltration: Focal ([2]; ZA alone 0.6 mg/mL): —
Infiltration: Focal ([2]; ZA alone 0.8 mg/mL): —
time to peak lesion area ([3]; rat ID 0.1 ml, ZA 0.1 mg/mL alone or with 130 or 100,000 U/mL rHuPH20): 3 days
histopathologic findings ([3]; rat ID, ZA 0.1 mg/mL alone, 10 days post-injection): scabbing, epidermal necrosis, infiltration, vessel dilation and hemorrhage
patients with skin irritation at the injection site [4]: 1%
IV MRT ([5]; adjusted to match SC dose 0.25 mg): 1.9010 h
IV MRT ([5]; adjusted to match SC dose 0.5 mg): 2.2330 h
IV MRT ([5]; adjusted to match SC dose 1 mg): 5.2494 h
IV MRT ([5]; adjusted to match SC dose 5 mg): 9.1957 h
terminal γ phase half-life (T½γ) ([5]; man, IV): ~146 h
Necrosis: Superficial dermis ([6]; ZA alone 0.05 mg/mL): —
Necrosis: Superficial dermis ([6]; ZA alone 0.1 mg/mL): —
